These results are taken from PubChem BioAssay AID2060500 (Molecular Pharmacology Branch, DTP, NCI, 2025).

Where “and” joins values, the source holds several entries; their conditions need not be identical. Equal entries are not always repeated.

The test deals with 596521-263-R-J1-PDC complex spheroids, viability % of control. In words: Anticancer human tumor 596521-263-R-J1-PDC patient-derived soft tissue sarcoma cell line growth inhibition [GQUAD]. To be noted: for viability, T/C: stronger effect = lower value. From the text: DNA G-quadruplex Stabilizer Agents in Combinations in Complex Spheroids
A high-throughput screen of multi-cell type tumor spheroids was designed to identify active combinations of DNA G-quadruplex stabilizer agents and targeted small molecules. Complex spheroids include a stromal component modeled by human endothelial cells (HUVEC) and fibroblasts modeled by human mesenchymal stem cells (MSCs). The concentration ranges selected for each drug and investigational agent were based upon clinically achievable concentrations if the clinical Cmax of the agent was known.
Compounds. The drugs and investigational agents: pidnarulex (CX-5461; NSC782164), APTO-253 (NSC789042), BRACO-19 (NSC847499), peposertib (NSC802822), ceralasertib (NSC780249), elimusertib (NSC800525), camonsertib (NSC841442), AZD-1390 (NSC803789), olaparib (NSC753686), talazoparib (NSC767125), ART-558 (NSC835418), sotorasib (NSC818433), MRTX-1133 (NSC836407), SN-38 (NSC673596), topotecan (NSC609699), etoposide (NSC141540), doxorubicin (NSC123127), gemcitabine (NSC613327), 5-fluorouracil (NSC19893), paclitaxel (NSC125973), vemurafenib (NSC761431), panobinostat (NSC761190), R-306465 (JNJ-16241199; NSC773264), adavosertib (NSC754352), TP-3654 (NSC805149), carboplatin (NSC241240), KSQ-4279 (NSC840948), and staurosporine (NSC755774) were obtained from the National Cancer Institute (NCI) Developmental Therapeutics Program Chemical Repository (34). The FDA-approved anticancer drug set is available from the NCI Developmental Therapeutics Program. […] The stock solutions were prepared in dimethyl sulfoxide (DMSO, Sigma-Aldrich, St. Louis, MO, cat. D2650) at 800-fold the tested concentration and stored at -70 degrees C prior to their use. All drugs and investigational agents were tested over a range starting from a high concentration at or near the clinical Cmax and decreasing in half-log increments. If the clinical Cmax for an agent had not been determined, the highest concentration tested was 10 microM.
2.3 Cell Culture. All cells were maintained in an incubator at 37 degrees C and 5% CO2 with 95% humidity. The PDC lines were cultured according to standard operating procedures established by the NCI PDMR. All PDCs were thawed and cultured in Matrigel-coated flasks prepared with a working solution of 1X Ham's F-12 nutrient mix, without supplementation (Invitrogen, cat. 11765054), 100 U/mL penicillin-streptomycin (Invitrogen, cat. 15140122), and 2.5% Matrigel (Corning Inc., cat. 354248) for the first three passages. The 857933-349-R-J2-PDC line was cultured in 6C/Colon 1B media, which includes advanced DMEM/F-12 (Thermo Fisher Scientific, cat. 12634028), 10 mM HEPES (Thermo Fisher Scientific, cat. 15630080), 1X GlutaMAX supplement (Thermo Fisher Scientific, cat. 35050061), 0.1 mg/mL primocin (InvivoGen, cat. ant-pm-2), 10% defined fetal bovine serum, heat inactivated (HyClone Laboratories Inc., cat. SH30070.03HI), 50% L-WRN conditioned media (ATCC, cat. CRL-3276), 1.25 mM N-Acetyl-L-cysteine (Sigma-Aldrich, cat. A9165), 10 mM nicotinamide (Sigma-Aldrich, cat. N0636), 1X B-27 supplement (Thermo Fisher Scientific, cat. 17504044), 1X N-2 supplement (Thermo Fisher Scientific, cat. 17502048), 10 microM Y-27632 dihydrochloride (Tocris Bioscience, cat. 1254), and 50 ng/mL human EGF recombinant protein (Thermo Fisher Scientific, cat. PHG0311). The 485176-168-R4-J1-PDC line was cultured in Panc media, which includes all 6C/Colon 1B media components plus 100 ng/mL human FGF-10 (Thermo Fisher Scientific, cat. 100-26), 500 nM SB-431542 (Selleckchem, cat. S1067), and gastrin (Tocris, cat. 3006).
[…]

[1] abbreviates: curve of first compound, second compound 0.0316 µM.
The mark [2] stands for this setting: curve of first compound, second compound 0.1 µM.
Where [3] appears, read: curve of first compound, second compound 0.316 µM.
The mark [4] stands for this setting: curve of first compound, second compound 1 µM.
Setting [5] is: curve of first compound, second compound 3.16 µM.
[6] abbreviates: curve of first compound, second compound 10 µM.
[7] abbreviates: second compound 0.0316 µM, first compound 0.000999 µM.
Where [8] appears, read: second compound 0.0316 µM, first compound 0.00316 µM.
Setting [9] is: second compound 0.0316 µM, first compound 0.00999 µM.
Setting [10] is: second compound 0.0316 µM, first compound 0.0316 µM.
The mark [11] stands for this setting: second compound 0.0316 µM, first compound 0.0999 µM.
[12] abbreviates: second compound 0.0316 µM, first compound 0.316 µM.
[13] abbreviates: second compound 0.1 µM, first compound 0.000999 µM.
[14] abbreviates: second compound 0.1 µM, first compound 0.00316 µM.
Where [15] appears, read: second compound 0.1 µM, first compound 0.00999 µM.
[16] abbreviates: second compound 0.1 µM, first compound 0.0316 µM.
Setting [17] is: second compound 0.1 µM, first compound 0.0999 µM.
[18] abbreviates: second compound 0.1 µM, first compound 0.316 µM.
Where [19] appears, read: second compound 0.316 µM, first compound 0.000999 µM.
Setting [20] is: second compound 0.316 µM, first compound 0.00316 µM.
Where [21] appears, read: second compound 0.316 µM, first compound 0.00999 µM.
Setting [22] is: second compound 0.316 µM, first compound 0.0316 µM.
[23] abbreviates: second compound 0.316 µM, first compound 0.0999 µM.
Setting [24] is: second compound 0.316 µM, first compound 0.316 µM.
The mark [25] stands for this setting: second compound 1 µM, first compound 0.000999 µM.
Where [26] appears, read: second compound 1 µM, first compound 0.00316 µM.
Where [27] appears, read: second compound 1 µM, first compound 0.00999 µM.
Where [28] appears, read: second compound 1 µM, first compound 0.0316 µM.
Setting [29] is: second compound 1 µM, first compound 0.0999 µM.
[30] abbreviates: second compound 1 µM, first compound 0.316 µM.
Setting [31] is: second compound 3.16 µM, first compound 0.000999 µM.
Setting [32] is: second compound 3.16 µM, first compound 0.00316 µM.
The mark [33] stands for this setting: second compound 3.16 µM, first compound 0.00999 µM.
Setting [34] is: second compound 3.16 µM, first compound 0.0316 µM.
Setting [35] is: second compound 3.16 µM, first compound 0.0999 µM.
Setting [36] is: second compound 3.16 µM, first compound 0.316 µM.
[37] abbreviates: second compound 10 µM, first compound 0.000999 µM.
Where [38] appears, read: second compound 10 µM, first compound 0.00316 µM.
[39] abbreviates: second compound 10 µM, first compound 0.00999 µM.
The mark [40] stands for this setting: second compound 10 µM, first compound 0.0316 µM.
The mark [41] stands for this setting: second compound 10 µM, first compound 0.0999 µM.
Setting [42] is: second compound 10 µM, first compound 0.316 µM.
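Also: spheroids exposed to drugs for 7 days before viability reading.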

The term IC50 denotes the concentration that inhibits the measured activity by half. What is called viability, T/C is the result in the treated group divided by that in the control group, in per cent. On to `Cn1ncnc1[C@H]1c2n[nH]c(=O)c3cc(F)cc(c23)N[C@@H]1c1ccc(F)cc1` + Cc1cnc(CNC(=O)c2c(=O)c3ccc(N4CCCN(C)CC4)nc3n3c2sc2ccccc23)cn1, for which the IC50 by setting is: under setting [1], more than 316 nM; under setting [2], more than 316 nM; under setting [3], more than 316 nM; under setting [4], more than 316 nM; under setting [5], more than 316 nM; under setting [6], 103 nM. For the same compound, the viability, T/C is 108% under setting [7]; 83.4% under setting [8]; 94.5% under setting [9]; 90.2% under setting [10]; 90.2% under setting [11]; 71.2% under setting [12]. Besides, the viability, T/C was 88.5% under setting [13]; 84% under setting [14]; 72.3% under setting [15]; 81.2% under setting [16]; 74.6% under setting [17]; 64.7% under setting [18]. For the same compound, the viability, T/C was 81.3% under setting [19]; 71.1% under setting [20]; 86.4% under setting [21]; 68.5% under setting [22]; 76% under setting [23]; 65.9% under setting [24]. The viability, T/C is, setting by setting: under setting [25], 74.1%; under setting [26], 66.2%; under setting [27], 60.5%; under setting [28], 53.7%; under setting [29], 60%; under setting [30], 59.7%. Moreover, the viability, T/C by setting is: under setting [31], 55.9%; under setting [32], 56.4%; under setting [33], 54%; under setting [34], 55.7%; under setting [35], 56.5%; under setting [36], 53%. Also, the viability, T/C by setting is: under setting [37], 52.9%; under setting [38], 40.3%; under setting [39], 56.2%; under setting [40], 50.1%; under setting [41], 52.8%; under setting [42], 32.2%.

For the compound `CC[C@@]1(O)C(=O)OCc2c1cc1n(c2=O)Cc2cc3c(CN(C)C)c(O)ccc3nc2-1` + Cc1[nH]c2ccc(F)cc2c1-c1nc2c3cccnc3c3ncccc3c2[nH]1, the IC50 is, setting by setting: under setting [1], more than 316 nM; under setting [2], more than 316 nM; under setting [3], 291 nM; under setting [4], more than 316 nM; under setting [5], 277 nM; under setting [6], more than 316 nM. For the same compound, the viability, T/C runs as follows: under setting [7], 98.3%; under setting [8], 100%; under setting [9], 84%; under setting [10], 69.5%; under setting [11], 64.3%; under setting [12], 58.7%. Moreover, the viability, T/C runs as follows: under setting [13], 103%; under setting [14], 99.1%; under setting [15], 92.5%; under setting [16], 65.6%; under setting [17], 59.6%; under setting [18], 53.5%. The viability, T/C is 96.8% under setting [19]; 103% under setting [20]; 90.7% under setting [21]; 78.5% under setting [22]; 61% under setting [23]; 49% under setting [24]. For the same compound, the viability, T/C was 103% under setting [25]; 109% under setting [26]; 79.7% under setting [27]; 65.7% under setting [28]; 58% under setting [29]; 51.4% under setting [30]. Also, the viability, T/C by setting is: under setting [31], 86.4%; under setting [32], 84.1%; under setting [33], 81.6%; under setting [34], 67.6%; under setting [35], 63.2%; under setting [36], 48.2%. Moreover, the viability, T/C under setting [37] is 85.5%; the viability, T/C under setting [38] was 89.9%; the viability, T/C under setting [39] was 70.4%; the viability, T/C under setting [40] is 59.3%; the viability, T/C under setting [41] was 60.9%; the viability, T/C under setting [42] was 50.3%.

Take `CC1COCCN1c1cc(C2(O)CC3CCC(C2)O3)c2cnn(-c3ccn[nH]3)c2n1` (stereo not given): the viability, T/C (compound 0.0316 µM) is 68.2% and 80.2% and 69%; the viability, T/C (compound 0.1 µM) is 66.9% and 48.7% and 53.4%; the viability, T/C (compound 0.316 µM) was 39.5% and 49.8% and 44.3%; the viability, T/C (compound 1 µM) is 32.1% and 33.8% and 33.2%; the viability, T/C (compound 3.16 µM) was 21.9% and 25.7% and 22.9%; the viability, T/C (compound 10 µM) was 12.9% and 16.6% and 12.2%. Moreover, the IC50 (curve of compound) was 226 nM and 195 nM and 173 nM.

In the case of `O=C(NO)c1cnc(N2CCN(S(=O)(=O)c3ccc4ccccc4c3)CC2)nc1`, the viability, T/C (compound 0.0316 µM) is 39.6% and 75% and 74.9%; the viability, T/C (compound 0.1 µM) was 25.7% and 56.3% and 57.3%; the viability, T/C (compound 0.316 µM) was 26.8% and 8.85% and 14%. Under “curve of compound”, the IC50 was < 31.6 nM and 117 nM and 121 nM.
